Broadly, the IC50 is the concentration needed to halve the response being measured. Read a low IC50 as higher potency.

The text below walks through data of BindingDB's records for doi:10.1111/cbdd.12530 (Chinese Academy of Sciences, 2015).

This test has as its target Dihydroorotate dehydrogenase (quinone), mitochondrial (Homo sapiens, UniProt Q02127). Nature of the test: DCIP-linked Assay. The following applies: pH 8. The procedure:
Recombinant human DHODH (final enzyme concentration between 20 and 60 nM in the assay well) were incubated at 37 °C in 50 mM Tris-HCl, 0.1% Triton X-100, 1 mM KCN, pH 8.0 with coenzyme Q10 (100 µM), and the tested compounds at different concentrations (final DMSO concentration 0.1% v/v). The reaction was initiatedby the addition of DHO (500 µM), and the reduction of DCIP (50 µM) was monitored through a decrease in absorbance at 650 nm.

Chain of Dihydroorotate dehydrogenase (quinone), mitochondrial (Q02127 whole entry): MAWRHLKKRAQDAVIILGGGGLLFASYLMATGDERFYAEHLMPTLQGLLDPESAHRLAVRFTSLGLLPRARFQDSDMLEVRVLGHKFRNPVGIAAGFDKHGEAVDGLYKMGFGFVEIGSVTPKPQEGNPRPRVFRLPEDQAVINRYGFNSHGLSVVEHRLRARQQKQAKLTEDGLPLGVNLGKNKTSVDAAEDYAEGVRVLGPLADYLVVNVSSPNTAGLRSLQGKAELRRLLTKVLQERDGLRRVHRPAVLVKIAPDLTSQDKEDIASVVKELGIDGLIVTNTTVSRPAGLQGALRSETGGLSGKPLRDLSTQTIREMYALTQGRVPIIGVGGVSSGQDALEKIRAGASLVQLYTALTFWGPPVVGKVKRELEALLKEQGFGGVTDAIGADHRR

In turn, `CC[C@H](C)[C@@H]1NC(=O)[C@@H]2CCCN2C1=O` [Cyclo L-Pro-L-Ile (Fr. 1-5)] gave an IC50 above 50 µM.

For `CC(C)[C@@H]1NC(=O)[C@@H]2CCCN2C1=O` [Cyclo L-Pro-L-Val (Fr. 2-1)], the half-inhibitory concentration (IC50) was above 50 µM.

Consider `O=C1N[C@@H](Cc2ccccc2)C(=O)N2C[C@H](O)C[C@@H]12` [Cyclo L-OH-Pro-L-Phe (Fr. 1-4)], for which the half-maximal inhibitory concentration (IC50) is 0.773 µM.

In the case of `CC(C)C[C@@H]1NC(=O)[C@@H]2CCCN2C1=O` [Cyclo L-Pro-L-Leu (Fr. 1-6)], the IC50 is above 50 µM.

For `O=C1N[C@@H](Cc2ccccc2)C(=O)N2CCC[C@@H]12` [Cyclo L-Pro-L-Phe (Fr. 2-2)], the IC50 was above 50 µM.
